Literature values in patent US20190381034A1, “PHARMACEUTICAL COMPOSITION AND METHOD FOR ACUTE ON CHRONIC LIVER FAILURE AND RELATED LIVER DISEASES” (priority 2018, published 2019).

What was measured:
[1] = in vivo
[2] = laboratory test indicators, liver failure patients, oral TMZ 20 mg three times a day

For `COc1ccc(CN2CCNCC2)c(OC)c1OC.Cl.Cl` [TMZ, 1-[2,3,4-trimethoxybenzyl] piperazine dihydrochloride], the liver toxicity (liver) is given as “minimal liver toxicity”, the “30-day immortality rate of liver failure patients” value (liver failure patients; TMZ treatment group, 20 mg tablet orally three times a day, 4-week course, traditional therapeutic approach 44%) is given as “approximately 18%” and the “90-day immortality rate of liver failure patients” value (liver failure patients; TMZ treatment group, 20 mg tablet orally three times a day, 4-week course, traditional therapeutic approach 68%) is given as 35%. For the same compound, the “decrease rate of alanine aminotransferase” value (liver failure patients; [2]) was “significantly raise the decrease rate”, the “decrease rate of aspartate transaminase” value (liver failure patients; [2]) was “significantly raise the decrease rate” and the “hepatic glucose metabolism (PET-CT imaging of liver)” value (liver failure patients; one liver failure patient, after taking TMZ) was “remarkably improved”. The elimination half-life [1] was “approximately 6 hours”.
